Results reported in ChEMBL document CHEMBL5543113, “Amphiphilic α-Peptoid-deoxynojirimycin Conjugate-based Multivalent Glycosidase Inhibitor for Hypoglycemic Effect and Fluorescence Imaging” (J Med Chem, 2024).
Active and inactive are the calls of the source. No cut-off for these calls is given here.

Tests used:
[1] = Inhibition of Aspergillus niger Alpha-glucosidase incubated for 10 mins by Lineweaver-Burk plot analysis
[2] = Inhibition of C57BL/6J mouse Alpha-glucosidase incubated for 10 mins by Lineweaver-Burk plot analysis
[3] = molecular target: Alpha-glucosidase (Saccharomyces cerevisiae S288c) (UniProt P53341+P38158+P07265); assay: Inhibition of Saccharomyces cerevisiae Alpha-glucosidase at 1 mM incubated for 10 mins by absorbance based microplate spectrophotometric analysis; format: protein assay
[4] = tested on: Aspergillus niger; assay: Potency index, ratio of miglitol Ki to test compound Ki for inhibition of Aspergillus niger Alpha-glucosidase incubated for 10 mins by Lineweaver-Burk plot analysis
[5] = tested on: Aspergillus niger; assay: Potency index, ratio of 1-deoxynojirimycin Ki to test compound Ki for inhibition of Aspergillus niger Alpha-glucosidase incubated for 10 mins by Lineweaver-Burk plot analysis
[6] = Cytotoxicity against human GES1 cells assessed as viable cells at 125 uM incubated for 44 hrs by MTT assay relative to control; format: toxicity, cell-based; conditions: read-out: Activity
[7] = tested on: Mus musculus; assay: Hypoglycemic activity in C57BL/6J mouse assessed as molar reduction in PBG level at 1.6 mg/kg, po co-administered with maltose and measured after 30 mins by glucometer relative to control; format: functional; design: scale not given: the % may be the effect or the level left; conditions: 0.5 h
[8] = tested on: Mus musculus; assay: Hypoglycemic activity in C57BL/6J mouse assessed as blood glucose level at 0.4 mg/kg, po co-administered with maltose and measured after 15 mins by glucometer (380.8 +/- 20.6 mg/dl); format: functional; conditions: 0.25 h
[9] = tested on: Mus musculus; assay: Hypoglycemic activity in C57BL/6J mouse assessed as blood glucose level at 0.8 mg/kg, po co-administered with maltose and measured after 30 mins by glucometer (380.8 +/- 20.6 mg/dL); format: functional; conditions: 0.5 h
[10] = tested on: Mus musculus; assay: Hypoglycemic activity in C57BL/6J mouse assessed as blood glucose level at 1.6 mg/kg, po co-administered with maltose and measured after 30 mins by glucometer (380.8 +/- 20.6 mg/dL); format: functional; conditions: 0.5 h
[11] = tested on: Mus musculus; assay: Hypoglycemic activity in C57BL/6J mouse assessed as decrease in PBG level at 0.4 mg/kg, po co-administered with maltose and measured after 15 mins by glucometer relative to control; format: functional; design: scale not given: the % may be the effect or the level left; conditions: 0.25 h
[12] = tested on: Mus musculus; assay: Hypoglycemic activity in C57BL/6J mouse assessed as decrease in PBG level at 0.8 mg/kg, po co-administered with maltose and measured after 15 mins by glucometer relative to control; format: functional; design: scale not given: the % may be the effect or the level left; conditions: 0.25 h
[13] = tested on: Mus musculus; assay: Hypoglycemic activity in C57BL/6J mouse assessed as decrease in PBG level at 1.6 mg/kg, po co-administered with maltose and measured after 30 mins by glucometer relative to control; format: functional; design: scale not given: the % may be the effect or the level left; conditions: 0.5 h
[14] = tested on: Mus musculus; assay: Hypoglycemic activity in C57BL/6J mouse assessed as reduction in PBG level measured per DNJ unit at 0.8 mg/kg, po co-administered with maltose and measured at 15 to 30 mins by glucometer relative to control; format: functional; design: scale not given: the % may be the effect or the level left; conditions: time 15-30 min
[15] = Toxicity in C57BL/6J mouse assessed as effect on heart morphology at 1.6 mg/kg, po co-administered with maltose for 7 days by Hematoxylin and eosin staining based analysis; format: organism-based; conditions: in vivo, 168 h, time 7 day
[16] = Toxicity in C57BL/6J mouse assessed as effect on liver morphology at 1.6 mg/kg, po co-administered with maltose for 7 days by Hematoxylin and eosin staining based analysis; format: organism-based; conditions: in vivo, 168 h, time 7 day
[17] = Toxicity in C57BL/6J mouse assessed as effect on lung morphology at 1.6 mg/kg, po co-administered with maltose for 7 days by Hematoxylin and eosin staining based analysis; format: organism-based; conditions: in vivo, 168 h, time 7 day
[18] = tested on: Mus musculus; assay: Hypoglycemic activity in KKAy diabetic mouse model assessed as blood glucose level at 1.6 mg/kg, po co-administered with maltose and measured after 15 mins by glucometer (reference value: 582.6 +/- 22.9 mg/dl); format: functional; conditions: 0.25 h
[19] = tested on: Mus musculus; assay: Hypoglycemic activity in KKAy diabetic mouse model assessed as blood glucose level at 1.6 mg/kg, po co-administered with maltose and measured after 120 mins by glucometer (reference value: 582.6 +/- 22.9 mg/dl); format: functional; conditions: 2 h
[20] = tested on: Mus musculus; assay: Hypoglycemic activity in KKAy diabetic mouse model assessed as decrease in PBG level at 1.6 mg/kg, po co-administered with maltose and measured after 15 mins by glucometer relative to control; format: functional; design: scale not given: the % may be the effect or the level left; conditions: 0.25 h
[21] = tested on: Mus musculus; assay: Hypoglycemic activity in KKAy diabetic mouse model assessed as decrease in PBG level at 1.6 mg/kg, po co-administered with maltose and measured after 30 mins by glucometer relative to control; format: functional; design: scale not given: the % may be the effect or the level left; conditions: 0.5 h
[22] = Self assembly property of compound in citric acid-phosphate buffer at pH 2 to 7 at 1 x 10^-4 M assessed as diameter by dynamic light scattering spectrometric analysis; format: physicochemical; conditions: pH 2, 100 µM, dose 1 10^-4M
[23] = Self assembly property of the compound assessed as diameter at 2 x 10^-4 mol/L by dynamic light scattering spectrometric analysis; format: physicochemical; conditions: 200 µM; dose 2 10^-4mol/L
[24] = Self assembly property of compound assessed as Nilered-compound complex formation by measuring increase in fluorescence intensity by Nile red dye based fluorescence analysis; format: physicochemical
[25] = Self assembly property of compound assessed as Nilered-compound complex formation by measuring critical micellar concentration at 638 nm by Nile red dye based fluorescence analysis; format: physicochemical
[26] = tested on: Mus musculus; assay: Binding affinity to mouse alpha-glucosidase assessed as fluorescence intensity at 2 x 10^-4 M administered as Nile red complex by fluorescence spectra analysis (reference value: 3586); conditions: dose 2.0 10^-4M
[27] = Binding affinity to mouse alpha-glucosidase assessed as DNJ binding constant at 2 x 10^-4 M administered as Nile red complex in presence of DNJ by fluorescence spectra analysis
[28] = tested on: Mus musculus; assay: Binding affinity to mouse alpha-glucosidase assessed as decrease in fluorescence intensity at 200 uM administered as Nile red complex in presence of miglitol by fluorescence spectra analysis
[29] = Binding affinity to mouse alpha-glucosidase assessed as miglitol binding constant at 200 uM administered as Nile red complex in presence of miglitol by fluorescence spectra analysis
[30] = Stability of compound in simulated intestinal fluid at 2 x 10^-4 M administered as Nile red complex by fluorescence spectra analysis; format: ADME; conditions: simulated gi fluid, 200 µM; dose 2 10^-4M
[31] = Stability of compound assessed as fluorescence intensity at 2 x 10^-4 M administered as Nile red complex at pH 1.0 to 7.0 by fluorescence spectra analysis 9Rvb = 3548); format: physicochemical; conditions: pH 1, 200 µM; dose 2 10^-4M
[32] = Drug uptake in C57/6J mouse spleen assessed as increase in fluorescence at 5 x 10^-5M, po administered as Nile red complex and measured after 4 hrs by fluorescence imaging analysis; format: ADME, organism-based; conditions: in vivo, dose 5 10^-5M
[33] = Drug uptake in C57/6J mouse lung assessed as increase in fluorescence at 5 x 10^-5M, po administered as Nile red complex and measured after 4 hrs by fluorescence imaging analysis; format: ADME, organism-based; conditions: in vivo, dose 5 10^-5M
[34] = Drug uptake in C57/6J mouse kidney assessed as increase in fluorescence at 5 x 10^-5M, po administered as Nile red complex and measured after 4 hrs by fluorescence imaging analysis; format: ADME, organism-based; conditions: in vivo, dose 5 10^-5M

## CCCCCCCCCCCCCCCCCCNC(=O)CN(Cc1cn(CCCCCCN2C[C@H](O)[C@@H](O)[C@H](O)[C@H]2CO)nn1)C(=O)CN(Cc1cn(CCCCCCN2C[C@H](O)[C@@H](O)[C@H](O)[C@H]2CO)nn1)C(=O)CN(Cc1cn(CCCCCCN2C[C@H](O)[C@@H](O)[C@H](O)[C@H]2CO)nn1)C(=O)CN(Cc1cn(CCCCCCN2C[C@H](O)[C@@H](O)[C@H](O)[C@H]2CO)nn1)C(C)=O
[1]
  Ki: 170 nM
[2]
  Ki: 2700 nM
[3]
  inhibition: inactive
[4]
  Ratio Ki: 121
[5]
  Ratio Ki: 21.2
[6]
  viability at 44 h, 125 µM: > 80%
[7]
  Activity: 11.5%
[8]
  Activity: 347.8 mg/dL
[9]
  Activity: 287.6 mg/dL
[10]
  Activity: 230.4 mg/dL
[11]
  Activity: 6.5%
[12]
  Activity: 12.2%
[13]
  Activity: 39.5%
[14]
  Activity: 14.2%
[15]
  Activity: Non-Toxic
[16]
  Activity: Non-Toxic
[17]
  Activity: Non-Toxic
[18]
  Activity: 327.6 mg/dL
[19]
  Activity: 351 mg/dL
[20]
  Activity: 6.6%
[21]
  Activity: 26.2%
[22]
  Activity: 138 nm
[23]
  Activity: 285 nm
[24]
  Activity: Dose-Dependent Effect
[25]
  CAC: 8.31 10^-5M
[26]
  Flu intensity: 1750
[27]
  Ka: 308 M⁻¹
[28]
  Activity: inactive
[29]
  Ka: 205 M⁻¹
[30]
  Stability: Stable
[31]
  Flu intensity: 1001
[32]
  Drug uptake: Not Active
[33]
  Drug uptake: Not Active
[34]
  Drug uptake: Not Active
